Reference: paper PMC7237647, “Synthesis, in vitro and in vivo evaluation of ^11C-O-methylated arylpiperazines as potential serotonin 1A (5-HT1A) receptor antagonist radiotracers” (EJNMMI Radiopharmacy and Chemistry, 2020)

Assays:
[1] = target: T1, PBR (Rattus norvegicus, UniProt P16257); assay: NIMH-PDSP radioligand binding assay, PBR
T1 construct: NIMH-PDSP
Experimental: (§1) . Cross selectivity for biogenic amines, neurotransmitter receptors, and transporters were determined by radioligand binding assays through NIMH- PDSP using validated and established protocols ([NIMH-PDSP Assay Protocol Book Version III, March 2018]).

[2] = target: Muscarinic receptors; assay: NIMH-PDSP radioligand binding assay, Muscarinic receptors
[3] = target: T2, Alpha2B (Homo sapiens, UniProt P18089); assay: NIMH-PDSP radioligand binding assay, Alpha2B
T2 construct: NIMH-PDSP

[4] = target: CB1, CB2; assay: NIMH-PDSP radioligand binding assay, CB1, CB2
[5] = target: T3, Alpha1B (Homo sapiens, UniProt P35368); assay: NIMH-PDSP radioligand binding assay, Alpha1B
T3 construct: NIMH-PDSP

[6] = target: T4, 5-HT2A (Homo sapiens, UniProt P28223); set-up: method as in ref Fiorino et al. [2012]; Fiorino et al. [2016]; Fiorino et al. [2017]; settings: previous preliminary pharmacological screening; ref Fiorino et al. [2012]; Fiorino et al. [2016]; Fiorino et al. [2017]; cited from earlier work
T4 construct: NIMH-PDSP

[7] = target: T5, 5-HT2C (Homo sapiens, UniProt P28335); assay: NIMH-PDSP radioligand binding assay, 5-HT2C
T5 construct: NIMH-PDSP
T5 sequence (P28335 33-458): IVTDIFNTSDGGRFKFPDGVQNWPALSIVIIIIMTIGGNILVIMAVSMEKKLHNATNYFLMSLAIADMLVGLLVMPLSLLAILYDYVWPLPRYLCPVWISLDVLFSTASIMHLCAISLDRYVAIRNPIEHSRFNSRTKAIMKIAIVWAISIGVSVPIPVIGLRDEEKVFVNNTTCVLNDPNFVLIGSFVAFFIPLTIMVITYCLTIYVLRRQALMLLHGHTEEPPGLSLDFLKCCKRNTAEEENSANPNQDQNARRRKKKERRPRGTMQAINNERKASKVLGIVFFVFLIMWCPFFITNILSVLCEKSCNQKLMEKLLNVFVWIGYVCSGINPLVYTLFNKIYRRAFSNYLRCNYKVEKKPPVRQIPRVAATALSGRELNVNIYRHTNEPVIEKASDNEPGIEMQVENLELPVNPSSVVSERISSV

[8] = target: DAT (Homo sapiens, UniProt Q01959); assay: NIMH-PDSP radioligand binding assay, DAT
Experimental: as §1

[9] = target: T6, 5-HT6 (Homo sapiens, UniProt P50406); assay: NIMH-PDSP radioligand binding assay, 5-HT6
T6 construct: NIMH-PDSP
Experimental: as §1

[10] = target: T7, Alpha1D (Homo sapiens, UniProt P25100); assay: NIMH-PDSP radioligand binding assay, Alpha1D
T7 construct: NIMH-PDSP

[11] = target: T8, Alpha2C (Homo sapiens, UniProt P18825); assay: NIMH-PDSP radioligand binding assay, Alpha2C
T8 construct: NIMH-PDSP

[12] = target: T9, 5-HT1E (Homo sapiens, UniProt P28566); assay: NIMH-PDSP radioligand binding assay, 5-HT1E
T9 construct: NIMH-PDSP
Experimental: as §1

[13] = target: T10, D4R (Homo sapiens, UniProt P21917); assay: NIMH-PDSP radioligand binding assay, D4R
T10 construct: NIMH-PDSP
T10 sequence (P21917 1-419): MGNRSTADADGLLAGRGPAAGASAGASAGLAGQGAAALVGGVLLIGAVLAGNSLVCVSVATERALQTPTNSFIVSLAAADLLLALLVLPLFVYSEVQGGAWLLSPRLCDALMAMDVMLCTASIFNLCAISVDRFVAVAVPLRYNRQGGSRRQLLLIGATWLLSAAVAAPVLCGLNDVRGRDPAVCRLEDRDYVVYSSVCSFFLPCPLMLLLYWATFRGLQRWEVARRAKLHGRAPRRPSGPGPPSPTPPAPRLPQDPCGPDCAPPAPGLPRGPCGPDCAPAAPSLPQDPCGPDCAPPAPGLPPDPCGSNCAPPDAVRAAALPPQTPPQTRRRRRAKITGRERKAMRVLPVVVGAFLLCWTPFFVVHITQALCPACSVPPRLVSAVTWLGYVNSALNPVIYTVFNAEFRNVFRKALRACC
Experimental: as §1

[14] = target: Beta Receptors; assay: NIMH-PDSP radioligand binding assay, Beta Receptors
[15] = target: T11, 5-HT3 (Homo sapiens, UniProt P46098); assay: NIMH-PDSP radioligand binding assay, 5-HT3
T11 construct: NIMH-PDSP
T11 sequence (P46098 24-478): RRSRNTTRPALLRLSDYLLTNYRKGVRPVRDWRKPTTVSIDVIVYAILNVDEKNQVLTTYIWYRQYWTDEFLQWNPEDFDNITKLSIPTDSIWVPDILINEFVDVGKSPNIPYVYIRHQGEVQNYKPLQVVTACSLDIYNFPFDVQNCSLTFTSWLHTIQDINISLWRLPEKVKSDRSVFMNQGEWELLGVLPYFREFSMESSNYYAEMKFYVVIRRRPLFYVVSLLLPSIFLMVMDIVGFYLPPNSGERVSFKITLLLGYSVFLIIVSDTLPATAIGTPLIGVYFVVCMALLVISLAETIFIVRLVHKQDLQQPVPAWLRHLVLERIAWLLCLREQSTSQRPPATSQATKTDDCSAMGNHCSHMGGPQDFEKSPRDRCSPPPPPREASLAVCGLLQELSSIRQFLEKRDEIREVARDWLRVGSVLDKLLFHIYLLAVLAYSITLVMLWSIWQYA
Experimental: as §1

[16] = target: AMPA; assay: NIMH-PDSP radioligand binding assay, AMPA
[17] = target: NET (Homo sapiens, UniProt P23975); assay: NIMH-PDSP radioligand binding assay, NET
Experimental: as §1

[18] = target: D1, D5; assay: NIMH-PDSP radioligand binding assay, D1, D5
[19] = target: NMDA; assay: NIMH-PDSP radioligand binding assay, NMDA
[20] = target: T12, 5-HT1A receptor (Homo sapiens, UniProt P08908); assay: Competition binding with [^3H]WAY100635 at 5-HT1A receptors (NIMH-PDSP); settings: for Ki: competition with [^3H]WAY100635, 12 concentrations (10 μM to 1 pM), triplicate, cells expressing 5-HT1A receptor; for Binding affinity ratios of 5-HT1A and α1-adrenergic receptors: in vitro Ki ratio
T12 sequence (P08908 1-422): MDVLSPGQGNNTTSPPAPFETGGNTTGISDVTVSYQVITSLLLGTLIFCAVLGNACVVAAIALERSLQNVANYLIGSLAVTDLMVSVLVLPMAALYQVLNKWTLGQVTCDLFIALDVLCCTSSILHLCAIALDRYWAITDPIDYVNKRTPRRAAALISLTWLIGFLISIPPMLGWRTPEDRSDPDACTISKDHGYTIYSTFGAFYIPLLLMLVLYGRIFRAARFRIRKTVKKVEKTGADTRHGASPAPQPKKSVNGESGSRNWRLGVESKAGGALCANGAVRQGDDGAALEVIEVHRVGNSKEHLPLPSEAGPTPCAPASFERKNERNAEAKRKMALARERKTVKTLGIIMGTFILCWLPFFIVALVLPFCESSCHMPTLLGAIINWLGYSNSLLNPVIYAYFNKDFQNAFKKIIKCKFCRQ

T3 sequence (P35368 whole entry): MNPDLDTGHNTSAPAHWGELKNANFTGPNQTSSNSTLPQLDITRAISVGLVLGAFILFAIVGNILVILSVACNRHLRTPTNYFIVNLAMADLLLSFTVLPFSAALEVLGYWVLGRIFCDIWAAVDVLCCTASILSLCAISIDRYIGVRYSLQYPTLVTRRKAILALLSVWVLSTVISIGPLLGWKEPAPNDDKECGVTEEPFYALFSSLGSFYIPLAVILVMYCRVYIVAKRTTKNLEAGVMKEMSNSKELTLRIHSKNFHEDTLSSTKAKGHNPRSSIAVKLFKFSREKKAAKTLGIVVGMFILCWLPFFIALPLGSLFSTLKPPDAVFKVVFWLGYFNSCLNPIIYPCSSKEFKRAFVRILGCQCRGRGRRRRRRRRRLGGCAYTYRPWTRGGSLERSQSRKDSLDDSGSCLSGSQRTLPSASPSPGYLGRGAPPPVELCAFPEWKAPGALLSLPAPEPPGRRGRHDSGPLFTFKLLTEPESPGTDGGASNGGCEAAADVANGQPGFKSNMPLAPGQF
T9 sequence (P28566 whole entry, species assumed): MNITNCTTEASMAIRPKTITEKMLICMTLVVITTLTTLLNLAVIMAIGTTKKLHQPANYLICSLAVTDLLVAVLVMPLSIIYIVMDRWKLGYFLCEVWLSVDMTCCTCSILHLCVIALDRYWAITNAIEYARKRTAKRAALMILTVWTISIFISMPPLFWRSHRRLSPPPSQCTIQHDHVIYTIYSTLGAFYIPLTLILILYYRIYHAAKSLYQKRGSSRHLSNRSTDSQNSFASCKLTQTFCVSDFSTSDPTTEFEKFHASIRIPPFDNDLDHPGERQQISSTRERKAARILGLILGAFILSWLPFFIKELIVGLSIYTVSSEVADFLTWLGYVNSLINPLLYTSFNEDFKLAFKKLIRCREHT
T2 sequence (P18089 whole entry): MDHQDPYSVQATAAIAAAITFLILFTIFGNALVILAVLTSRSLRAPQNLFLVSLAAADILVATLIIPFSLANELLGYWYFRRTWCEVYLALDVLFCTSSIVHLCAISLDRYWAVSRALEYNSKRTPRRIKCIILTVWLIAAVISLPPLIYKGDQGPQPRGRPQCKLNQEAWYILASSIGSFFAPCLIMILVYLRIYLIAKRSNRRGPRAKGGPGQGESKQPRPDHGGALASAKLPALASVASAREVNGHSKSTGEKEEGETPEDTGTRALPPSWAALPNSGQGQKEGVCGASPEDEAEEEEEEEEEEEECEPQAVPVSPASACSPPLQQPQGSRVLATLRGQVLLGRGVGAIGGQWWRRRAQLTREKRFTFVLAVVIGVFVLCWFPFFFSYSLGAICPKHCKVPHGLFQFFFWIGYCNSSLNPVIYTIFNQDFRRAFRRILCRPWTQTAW
T4 sequence (P28223 whole entry, species assumed): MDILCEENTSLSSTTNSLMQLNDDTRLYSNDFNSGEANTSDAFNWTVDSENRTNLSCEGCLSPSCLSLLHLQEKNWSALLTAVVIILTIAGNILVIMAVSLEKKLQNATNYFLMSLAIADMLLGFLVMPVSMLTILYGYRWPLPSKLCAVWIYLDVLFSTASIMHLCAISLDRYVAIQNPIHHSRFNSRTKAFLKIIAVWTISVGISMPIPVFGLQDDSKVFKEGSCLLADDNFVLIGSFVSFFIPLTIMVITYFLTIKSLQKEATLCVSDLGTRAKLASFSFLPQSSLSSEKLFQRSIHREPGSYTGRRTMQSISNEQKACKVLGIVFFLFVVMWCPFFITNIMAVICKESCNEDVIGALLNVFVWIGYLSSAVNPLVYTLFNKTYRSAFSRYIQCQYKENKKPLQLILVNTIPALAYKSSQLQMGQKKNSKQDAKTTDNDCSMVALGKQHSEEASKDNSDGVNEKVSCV
T6 sequence (P50406 whole entry, species assumed): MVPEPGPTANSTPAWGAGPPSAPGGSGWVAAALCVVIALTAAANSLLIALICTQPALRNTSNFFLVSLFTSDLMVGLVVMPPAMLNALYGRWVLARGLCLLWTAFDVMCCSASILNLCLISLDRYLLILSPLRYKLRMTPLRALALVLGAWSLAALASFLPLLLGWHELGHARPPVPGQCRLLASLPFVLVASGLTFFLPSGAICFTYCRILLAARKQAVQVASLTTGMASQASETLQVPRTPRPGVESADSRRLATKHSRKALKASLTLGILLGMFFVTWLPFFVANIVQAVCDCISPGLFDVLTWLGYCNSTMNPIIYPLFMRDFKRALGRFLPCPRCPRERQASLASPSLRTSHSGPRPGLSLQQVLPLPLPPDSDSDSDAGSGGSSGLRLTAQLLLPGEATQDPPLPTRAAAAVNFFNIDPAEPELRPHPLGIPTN
Chain of NET (P23975 whole entry): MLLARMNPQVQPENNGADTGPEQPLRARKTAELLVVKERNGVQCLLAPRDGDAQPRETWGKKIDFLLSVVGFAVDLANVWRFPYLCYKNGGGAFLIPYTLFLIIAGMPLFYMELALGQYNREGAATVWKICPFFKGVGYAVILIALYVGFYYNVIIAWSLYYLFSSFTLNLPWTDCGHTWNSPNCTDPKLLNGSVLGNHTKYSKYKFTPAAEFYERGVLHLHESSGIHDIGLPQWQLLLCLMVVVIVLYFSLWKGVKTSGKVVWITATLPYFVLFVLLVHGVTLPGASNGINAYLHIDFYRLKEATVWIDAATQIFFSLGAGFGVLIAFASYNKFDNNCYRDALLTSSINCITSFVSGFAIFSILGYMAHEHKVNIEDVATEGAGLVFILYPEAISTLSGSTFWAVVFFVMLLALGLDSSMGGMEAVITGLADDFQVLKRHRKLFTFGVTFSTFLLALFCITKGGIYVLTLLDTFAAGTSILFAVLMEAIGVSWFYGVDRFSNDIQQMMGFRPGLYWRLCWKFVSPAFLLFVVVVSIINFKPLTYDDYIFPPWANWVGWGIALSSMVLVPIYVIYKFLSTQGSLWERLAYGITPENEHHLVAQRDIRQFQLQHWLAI
T8 sequence (P18825 whole entry): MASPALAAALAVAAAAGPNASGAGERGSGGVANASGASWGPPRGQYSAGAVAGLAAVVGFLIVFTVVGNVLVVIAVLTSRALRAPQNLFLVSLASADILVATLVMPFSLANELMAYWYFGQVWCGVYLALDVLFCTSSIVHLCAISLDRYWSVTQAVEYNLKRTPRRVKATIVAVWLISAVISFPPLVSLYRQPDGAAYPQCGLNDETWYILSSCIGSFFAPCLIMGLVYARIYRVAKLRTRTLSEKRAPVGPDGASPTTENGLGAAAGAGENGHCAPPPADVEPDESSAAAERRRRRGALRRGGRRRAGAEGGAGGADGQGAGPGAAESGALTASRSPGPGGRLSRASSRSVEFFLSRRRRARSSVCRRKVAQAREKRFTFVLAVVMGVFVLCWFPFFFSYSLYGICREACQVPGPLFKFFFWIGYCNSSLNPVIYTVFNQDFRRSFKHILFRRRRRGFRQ
Chain of DAT (Q01959 whole entry, species assumed): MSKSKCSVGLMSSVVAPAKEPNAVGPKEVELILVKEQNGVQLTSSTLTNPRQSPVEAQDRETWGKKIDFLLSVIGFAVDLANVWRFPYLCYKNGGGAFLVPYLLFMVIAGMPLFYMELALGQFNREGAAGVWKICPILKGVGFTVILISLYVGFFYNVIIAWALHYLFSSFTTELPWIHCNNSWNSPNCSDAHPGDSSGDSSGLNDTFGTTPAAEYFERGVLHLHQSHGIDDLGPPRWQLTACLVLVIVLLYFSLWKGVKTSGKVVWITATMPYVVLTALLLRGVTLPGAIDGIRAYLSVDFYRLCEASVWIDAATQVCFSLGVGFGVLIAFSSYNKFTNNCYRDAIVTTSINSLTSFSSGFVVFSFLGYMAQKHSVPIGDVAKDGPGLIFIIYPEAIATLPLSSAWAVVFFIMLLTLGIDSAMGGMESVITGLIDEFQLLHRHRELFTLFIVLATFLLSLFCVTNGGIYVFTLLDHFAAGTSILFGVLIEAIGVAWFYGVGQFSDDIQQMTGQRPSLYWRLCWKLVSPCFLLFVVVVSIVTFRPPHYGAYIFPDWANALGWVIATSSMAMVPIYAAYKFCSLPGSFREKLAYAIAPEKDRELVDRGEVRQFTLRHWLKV
T7 sequence (P25100 whole entry): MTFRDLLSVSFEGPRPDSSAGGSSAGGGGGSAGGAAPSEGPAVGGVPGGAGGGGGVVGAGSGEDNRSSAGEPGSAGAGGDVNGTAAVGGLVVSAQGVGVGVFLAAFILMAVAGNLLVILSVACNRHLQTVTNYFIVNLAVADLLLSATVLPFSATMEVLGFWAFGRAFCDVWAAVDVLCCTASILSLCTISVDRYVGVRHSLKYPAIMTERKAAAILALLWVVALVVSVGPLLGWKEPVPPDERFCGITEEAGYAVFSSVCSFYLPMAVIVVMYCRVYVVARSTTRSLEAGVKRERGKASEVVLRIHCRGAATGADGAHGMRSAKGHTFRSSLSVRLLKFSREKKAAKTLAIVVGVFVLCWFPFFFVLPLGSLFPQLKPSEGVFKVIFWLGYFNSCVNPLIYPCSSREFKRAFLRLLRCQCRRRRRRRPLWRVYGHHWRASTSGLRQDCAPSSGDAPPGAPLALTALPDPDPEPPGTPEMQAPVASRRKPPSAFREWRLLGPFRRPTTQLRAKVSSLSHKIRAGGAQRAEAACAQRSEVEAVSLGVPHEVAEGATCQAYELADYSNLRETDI

Compound	Ki [1]	Ki [2]	Ki [3]	Ki [4]	Ki [5]	affinity to 5-HT2A [6]	Ki [7]	Ki [8]	Ki [9]	Ki [10]	Ki [11]	Ki [12]	Ki [13]	Ki [14]	Ki [15]	Ki [16]	Ki [17]	Ki [18]	Ki [19]	Ki [20]	also measured
COc1ccccc1N1CCN(CCCN/C(=N\C#N)c2ccccn2)CC1 [Compound 1]	> 10 µM	> 10 µM	0.67 µM	> 10 µM	1.08 µM	high affinities	> 10 µM	> 10 µM	> 10 µM	0.213 µM	0.835 µM	> 10 µM	0.137 µM	> 10 µM	> 10 µM	> 10 µM	> 10 µM	> 10 µM	> 10 µM	0.022 µM	Binding affinity ratios of 5-HT1A and α1-adrenergic receptors [20]: ~ 6
COc1ccccc1N1CCN(CCNC(=O)c2ccccn2)CC1 [Compound 2]	> 10 µM	> 10 µM	> 10 µM	> 10 µM	0.254 µM	high affinities	> 10 µM	> 10 µM	> 10 µM	0.053 µM	> 10 µM	> 10 µM	0.088 µM	> 10 µM	> 10 µM	> 10 µM	> 10 µM	> 10 µM	> 10 µM	0.0077 µM	Binding affinity ratios of 5-HT1A and α1-adrenergic receptors [20]: ~ 6
